In patent US20070128217A1 (priority 2003, published 2007):

Key:
[1] = system: control sera (pooled serum of ten healthy LUMC hospital workers; commercial negative donor pooled serum from the Dutch bloodbank); type: binding, human; set-up: Binding of Control serum LUMC to linear peptides / Binding of Control serum Blood-bank to linear peptides / Binding of Control serum LUMC to looped peptides / Binding of Control Serum Blood-Bank to Looped peptides / Binding of Control serum LUMC to linear peptides of the protein M of SARS-CoV Urbani / Binding of Control serum Blood-bank to linear peptides of the protein M of SARS-CoV Urbani / Binding of Control serum LUMC to looped peptides of the protein M of SARS-CoV Urbani / Binding of Control Serum Blood-Bank to Looped peptides of the protein M of SARS-CoV Urbani: unit not given here
[2] = system: antibodies in sera from SARS patients (sera 1a, 1b, 2, 6, 37, 62, London, SARS-yellow, SARS-green); type: binding, human; set-up: Binding of serum 6 to linear peptides of protein X1 of SARS-CoV Urbani / Binding of serum 37 to linear peptides of protein X1 of SARS-CoV Urbani / Binding of serum 6 to looped/cyclic peptide (PEPSCAN-ELISA) / Binding of serum 37 to looped/cyclic peptide (PEPSCAN-ELISA) / Binding of serum 37 to looped/cyclic peptides of protein X1 of SARS-CoV Urbani / Binding of serum 6 to linear peptides of protein X2 / Binding of serum 37 to linear peptides of protein X2 / Binding of serum 37 to looped/cyclic peptides of protein X2 of SARS-CoV Urbani / Binding of serum 6 to linear peptides of protein M of SARS-CoV Urbani / Binding of serum 37 to linear peptides of protein M of SARS-CoV Urbani / Binding of serum 6 to looped/cyclic peptides of protein M of SARS-CoV Urbani / Binding of serum 37 to looped/cyclic peptides of protein M of SARS-CoV Urbani / Binding of serum 6 to linear peptides of protein X3 of SARS-CoV Urbani / Binding of serum 37 to linear peptides of protein X3 of SARS-CoV Urbani / Binding of serum 37 to looped/cyclic peptides of protein X3 of SARS-CoV Urbani / Binding of serum 6 to linear peptides of protein X4 of SARS-CoV Urbani / Binding of serum 37 to linear peptides of protein X4 of SARS-CoV Urbani / Binding of serum 37 to looped/cyclic peptides of protein X4 of SARS-CoV Urbani / Binding of serum 6 to linear peptides of protein X5 of SARS-CoV Urbani / Binding of serum 37 to linear peptides of protein X5 of SARS-CoV Urbani / Binding of serum 37 to looped/cyclic peptides of protein X5 of SARS-CoV Urbani / Binding of serum 6 to linear peptides of protein N of SARS-CoV Urbani / Binding of serum 37 to linear peptides of protein N of SARS-CoV Urbani / Binding of serum 6 to linear peptide (PEPSCAN-ELISA) / Binding of serum 1a to looped/cyclic peptides of protein N of SARS-CoV Urbani / Binding of serum 1b to looped/cyclic peptides of protein N of SARS-CoV Urbani / Binding of serum 2 to looped/cyclic peptides of protein N of SARS-CoV Urbani / Binding of serum 6 to looped/cyclic peptides of protein N of SARS-CoV Urbani / Binding of serum 37 to looped/cyclic peptides of protein N of SARS-CoV Urbani / Binding of serum 62 to looped/cyclic peptides of protein N of SARS-CoV Urbani / Binding of serum London to looped/cyclic peptides of protein N of SARS-CoV Urbani / Binding of serum SARS-green to looped/cyclic peptides of protein N of SARS-CoV Urbani: unit not given here
[3] = system: rabbit serum obtained by immunizing a rabbit with the SARS-CoV strain Frankfurt 1; type: binding; set-up: Binding of a rabbit serum to linear peptides / Binding of a rabbit serum to looped peptides / Rabbit serum linear peptides / Rabbit serum looped peptides / Binding of a rabbit serum to linear peptides of protein N of SARS-CoV Urbani (Rabbit serum linear peptides) / Binding of a rabbit serum to looped/cyclic peptides of protein N of SARS-CoV Urbani (Rabbit serum looped peptides): unit not given here
[4] = system: recombinant human anti-SARS-CoV antibody 03-018; type: binding; set-up: Binding of antibody 03-018 to linear peptides of the N protein of SARS-CoV Urbani / Binding of antibody 03-018 to looped/cyclic peptides of the N protein of SARS-CoV Urbani: unit not given here

Sequence	Binding of serum 1a to looped/cyclic peptides of protein N of SARS-CoV Urbani [2]	Binding of serum 1b to looped/cyclic peptides of protein N of SARS-CoV Urbani [2]	Binding of serum 2 to looped/cyclic peptides of protein N of SARS-CoV Urbani [2]	Binding of serum 6 to looped/cyclic peptides of protein N of SARS-CoV Urbani [2]	Binding of serum 37 to looped/cyclic peptides of protein N of SARS-CoV Urbani [2]	Binding of serum 62 to looped/cyclic peptides of protein N of SARS-CoV Urbani [2]	Binding of serum London to looped/cyclic peptides of protein N of SARS-CoV Urbani [2]	Binding of serum SARS-green to looped/cyclic peptides of protein N of SARS-CoV Urbani [2]	Binding of serum SARS-yellow to looped/cyclic peptides of protein N of SARS-CoV Urbani [2]	Binding of a rabbit serum to linear peptides of protein N of SARS-CoV Urbani (Rabbit serum linear peptides) [3]	Binding of a rabbit serum to looped/cyclic peptides of protein N of SARS-CoV Urbani (Rabbit serum looped peptides) [3]	Binding of antibody 03-018 to linear peptides of the N protein of SARS-CoV Urbani [4]	Binding of antibody 03-018 to looped/cyclic peptides of the N protein of SARS-CoV Urbani [4]	Binding of serum 1a to linear peptides of protein N of SARS-CoV Urbani [2]	Binding of serum 1b to linear peptides of protein N of SARS-CoV Urbani [2]	Binding of serum 2 to linear peptides of protein N of SARS-CoV Urbani [2]	Binding of serum 6 to linear peptides of protein N of SARS-CoV Urbani [2]	Binding of serum 37 to linear peptides of protein N of SARS-CoV Urbani [2]	Binding of serum 62 to linear peptides of protein N of SARS-CoV Urbani [2]	Binding of serum London to linear peptides of protein N of SARS-CoV Urbani [2]	also measured
FGDQDLIRQGTDYKH	0.4	0.3	0.4	0.2	0.7	0.6	0.4	0.7	0.5	0.1	0.5	0.1	0.2	–	–	–	–	–	–	–	Binding of Control Serum Blood-Bank to Looped peptides [1]: 0.6; Binding of Control serum Blood-bank to linear peptides [1]: 0.8; Binding of Control serum LUMC to linear peptides [1]: 0.7; Binding of Control serum LUMC to looped peptides [1]: 0.7; Binding of serum 1a to linear peptide (PEPSCAN-ELISA) [2]: 0.3; Binding of serum 1b to linear peptide (PEPSCAN-ELISA) [2]: 0.2; Binding of serum 2 to linear peptide (PEPSCAN-ELISA) [2]: 0.2; Binding of serum 6 to linear peptide (PEPSCAN-ELISA) [2]: 0.2; Binding of serum 37 to linear peptide (PEPSCAN-ELISA) [2]: 0.7; Binding of serum 62 to linear peptide (PEPSCAN-ELISA) [2]: 0.7; Binding of serum London to linear peptide (PEPSCAN-ELISA) [2]: 0.6; Binding of serum SARS-green to linear peptide (PEPSCAN-ELISA) [2]: 0.7; Binding of serum SARS-yellow to linear peptide (PEPSCAN-ELISA) [2]: 0.6
FGMSRIGMEVTPSGT	0.3	0.2	0.4	0.2	0.4	0.3	0.3	0.2	0.3	0.2	0.3	0.1	0.2	0.3	0.1	0.2	0.2	0.8	0.7	0.6	Control Serum Blood-Bank Looped peptides [1]: 0.5; Control serum Blood-bank linear peptides [1]: 0.8; Control serum LUMC linear peptides [1]: 0.7; Control serum LUMC looped peptides [1]: 0.5; Binding of serum SARS-green to linear peptides of protein N of SARS-CoV Urbani [2]: 0.3; Binding of serum SARS-yellow to linear peptides of protein N of SARS-CoV Urbani [2]: 0.7
FSRQLQNSMSGASAD	0.2	0.1	0.2	0.1	0.4	0.2	0.2	0.0	0.0	0.4	0.1	0.1	0.2	0.2	0.1	0.1	0.2	0.7	0.6	0.6	Control Serum Blood-Bank Looped peptides [1]: 0.4; Control serum Blood-bank linear peptides [1]: 0.7; Control serum LUMC linear peptides [1]: 0.6; Control serum LUMC looped peptides [1]: 0.2; Binding of serum SARS-green to linear peptides of protein N of SARS-CoV Urbani [2]: 0.6; Binding of serum SARS-yellow to linear peptides of protein N of SARS-CoV Urbani [2]: 0.4
FTALTQHGKEELRFP	0.2	0.1	0.3	0.1	0.4	0.3	0.2	0.0	0.1	0.2	0.1	0.1	0.2	0.3	0.2	0.3	0.2	0.8	0.7	0.5	Binding of Control Serum Blood-Bank to Looped peptides [1]: 0.5; Binding of Control serum Blood-bank to linear peptides [1]: 0.7; Binding of Control serum LUMC to linear peptides [1]: 0.7; Binding of Control serum LUMC to looped peptides [1]: 0.3; Binding of serum SARS-green to linear peptides of protein N of SARS-CoV Urbani [2]: 0.7; Binding of serum SARS-yellow to linear peptides of protein N of SARS-CoV Urbani [2]: 0.6
